Two compounds from patent US7429482B2, “Screening tools for discovery of novel anabolic agents” (United States of America as represented by the Department …, priority 2005, dated 2008) can be followed below.

Each structure is given as a SMILES string.

Experiment [1] relates to MAFbx. The experiment is described as follows: MAFbx expression in gastrocnemius of rats infused with dexamethasone with or without testosterone (qPCR). The experiment is classed as in vivo. Particulars: rat, dexamethasone plus testosterone 28 mg/kg/day, 7 days. How it is done:
Muscle was flash frozen on dry ice after excision. Total RNA was isolated by phenol:chloroform extraction (Chomczynski and Sacchi, Anal Biochem 162: 156-159, 1987) and further enriched using RNAeasy minicolumns (Qiagen) with digestion on the column with RNAse-free DNAse (Qiagen).
RNA was quantified by absorbance at 260 nm. One microgram of total RNA was used to prepare cDNA libraries using the High Capacity cDNA Archive Kit (Applied Biosystems, Foster City, Calif.). Libraries were diluted 25-fold with water. Real time PCR was performed using Taqman 2×PCR buffer (Applied Biosystems) and an Applied Biosystems 7500 thermocycler. Data were normalized relative to that for 18S RNA. Relative changes in expression were determined using the 2^−ΔΔCt method. Taqman Assay on Demand probes (Applied Biosystems) were used for all assays except rat 18S RNA, which was quantified using the following […]: Forward: […] (SEQ ID NO:15); Reverse: […] (SEQ ID NO:16); Probe: FAM-[…] (SEQ ID NO:17; Labeled with FAM and non-fluoresent quencher, NFQ, at 5′ and 3′ ends, repsectively).
Male Wistar rats weighing 250 gm were anesthetized with ketamine/xylazine followed by implantation Alzet miniosmotic pumps administering vehicle (propylene glycocol), dexamethasone (0.7 mg/kg/day), or dexamethasone plus testosterone (28 mg/kg/day). […]

Experiment [2] has as its system MAFbx. The experiment is described as follows: Acute denervation: MAFbx mRNA in EDL and soleus (qPCR). It is filed as in vivo, rat. Particulars: nandrolone 1.5 mg/kg/wk 14 days. How it is done: (§1) Male Wistar rats weighing 250 gm (Taconic Farms, Germantown, N.Y.) were provided food and water ad libitum and were housed in a temperature and humidity controlled environment providing a 12:12 hour day-night cycle. For surgical procedures, animals were anesthetized with ketamine/xylazine. The left sciatic nerve was exposed by blunt dissection, and a 1 to 2 mm piece of this nerve was excised just below the level of the femoral head. A sham surgery was performed on the right hind limb in which the sciatic nerve was exposed but was not transected. Model 2002 Alzet pumps were implanted subcutaneously on the back. […] A pellet containing 15 mg of testosterone (Innovative Research of America, Sarasota, Fla.) administered as a continuous infusion (5 mg/wk), or a pellet containing placebo, was inserted into a subcutaneous pouch. […] Because testosterone is known to have anabolic actions (Ferrando et al., Am J Physiol Endocrinol Metab 282: E601-E607, 2002; Mauras et al., J Clin Endocrinol Metab 83: 1886-1892, 1998; Urban et al., Am J Physiol 269: E820-E826, 1995), reductions in levels of this hormone could affect muscle mass and confound interpretation of the results. Animals were euthanized 14 days later by inhalation of carbon dioxide. […]
(§2) Total RNA was extracted from skeletal muscle (20 mg) by homogenization in guanidine thiocyanate using a Polytron followed by extraction using phenol-chloroform (Chomczynski and Sacchi, Anal Biochem 162: 156-159, 1987). […] Total RNA was then eluted and quantified by absorbance at 260 nm. […] Levels of gene expression in the denervated muscle were expressed as fold induction relative to muscle from the sham-denervated leg of animals administered vehicle. […] Fold-induction was determined using the 2^−ΔΔCt method, using expression of 18S RNA as the normalization control. […]

In experiment [3] the test system is myostatin. Put plainly: Acute denervation: myostatin mRNA in EDL and soleus (qPCR). The experiment is classed as in vivo, rat. The procedure: as §1, §2
In experiment [4] the test system is GADD45. Put plainly: Chronic denervation: GADD45 mRNA in gastrocnemius (qPCR). The experiment is classed as in vivo, rat. The procedure: Male Wistar rats weighing 200-250 gm (Taconic Farms, Germantown, N.Y.) were provided food and water ad libitum and were housed in a temperature and humidity controlled environment providing a 12:12 hour day-night cycle. For surgical procedures, animals were anesthetized with ketamine/xylazine. The left sciatic nerve was exposed by blunt dissection, and a 1 to 2 mm piece of this nerve was excised just below the level of the femoral head. A sham surgery was performed on the right hind limb in which the sciatic nerve was exposed but was not transected. Twenty eight days later, animals were anesthetized, and Alzet pumps were implanted subcutaneously on the back. […] Testosterone levels after replacement were approximately 15 nM, a high-normal range for rats of this age. Animals were sacrificed 3, 7 or 28 days after implantation of the miniosmotic pumps by inhalation of carbon dioxide. Gastrocnemius muscles were excised and weighed, then flash frozen on dry ice and stored at −80° C.
Total RNA was extracted from skeletal muscle (20 mg) by homogenization in guanidine thiocyanate using a Polytron followed by extraction of total RNA with phenol-chloroform as described by (Chomczynski and Sacchi, Anal Biochem 162: 156-159, 1987). Total RNA was further enriched using RNAeasy minicolumns (Qiagen, Valencia, Calif.). This procedure included digestion of contaminating DNA on the column with RNAse-free DNAse (Qiagen). Total RNA was eluted and quantified by absorbance at 260 nm. One μg of total RNA was used to prepare a cDNA library by reverse transcription (High Capacity cDNA Archive Kit, Applied Biosystems). Libraries were diluted 25-fold with water. Real time PCR was performed Taqman 2×PCR buffer (Applied Biosystems) using an Applied Biosystems 7500 thermocycler. Levels of gene expression in the denervated muscle were expressed as fold induction relative to muscle from the sham-denervated leg of animals administered vehicle. […] Fold-induction was determined using the 2^−ΔΔCt method, using expression of 18S RNA as the normalization control. […]

As to `C[C@]12CC[C@H]3[C@@H](CCC4=CC(=O)CC[C@@]43C)[C@@H]1CC[C@@H]2O` [testosterone], the “effects of dexamethasone on MAFbx expression in gastrocnemius” value in experiment [1] is on record as “completely blocked”.
Turning to `C[C@]12CC[C@H]3[C@@H](CCC4=CC(=O)CC[C@@H]43)[C@@H]1CC[C@@H]2O` [nandrolone], the MAFbx expression entry was “reductions were not statistically significant” in experiment [2] (denervated EDL), “significantly reduced” in experiment [2] (denervated soleus) and “did not significantly alter” in experiment [2] (sham-denervated EDL or soleus). Further, the myostatin expression result in experiment [3] (denervated EDL) is reported as “appeared to reduce”; in experiment [3] (sham-denervated EDL), “significantly reduced”; in experiment [3] (soleus), “did not appreciably alter”. Also, the GADD45 expression result in experiment [4] (denervated muscle, after 3 and 7-days, not significant) is “tended to reduce”; in experiment [4] (sham-denervated muscle), “no appreciable effect”. Besides, the “effect on GADD45 expression” value in experiment [4] (denervated muscle, after 28-days infusion) is “lost”.
